# Reference: ChEMBL document CHEMBL1201862, “PubChem BioAssay data set” (2004)
# Calls of active or inactive are those of the source.
# How the values were obtained:
# [1] = biological target: Peroxisome proliferator-activated receptor gamma/Nuclear receptor coactivator 2 (Homo sapiens, UniProt P37231); test: (§1) TR-FRET dose response biochemical High Throughput Screening assay for agonists of the steroid receptor coactivator 2 (SRC-2) recruitment by the peroxisome proliferator-activated receptor gamma (PPAR gamma): non-selective agonists. [Related pubchem assays: 1297, 1032 ]; assay type: functional
# [2] = biological target: T1, Zinc finger protein mex-5 (Caenorhabditis elegans, UniProt Q9XUB2); test: MEX-5/TCR-2 RNA interaction inhibitors, dose response, biochemical, C. elegans, fluorescence polarization (AID 1960)
# T1 sequence (Q9XUB2 whole entry): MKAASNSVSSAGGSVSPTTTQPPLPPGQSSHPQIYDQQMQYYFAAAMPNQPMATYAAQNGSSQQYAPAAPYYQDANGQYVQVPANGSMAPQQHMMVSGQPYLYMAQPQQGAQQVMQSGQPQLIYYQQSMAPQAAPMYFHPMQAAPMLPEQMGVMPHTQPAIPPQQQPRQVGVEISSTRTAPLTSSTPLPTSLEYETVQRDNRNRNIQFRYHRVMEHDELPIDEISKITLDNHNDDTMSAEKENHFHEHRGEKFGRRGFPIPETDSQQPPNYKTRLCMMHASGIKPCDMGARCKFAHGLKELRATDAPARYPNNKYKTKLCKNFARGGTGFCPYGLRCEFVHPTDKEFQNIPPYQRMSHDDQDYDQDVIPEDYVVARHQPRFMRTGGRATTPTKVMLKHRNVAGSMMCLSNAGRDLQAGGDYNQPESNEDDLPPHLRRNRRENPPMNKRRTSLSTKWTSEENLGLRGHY
# [3] = biological target: T2, RNA-binding protein pos-1 (Caenorhabditis elegans, UniProt G5EF15); test: inhibitors of POS-1/mex-3 RNA binding, dose response, biochemical, fluorescence polarization (AID 1964);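 also: purified POS-1 fused to maltose binding protein made in E. coli; potency of compounds blocking POS-1 binding to fluorescent RNA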
# T2 sequence (G5EF15 whole entry): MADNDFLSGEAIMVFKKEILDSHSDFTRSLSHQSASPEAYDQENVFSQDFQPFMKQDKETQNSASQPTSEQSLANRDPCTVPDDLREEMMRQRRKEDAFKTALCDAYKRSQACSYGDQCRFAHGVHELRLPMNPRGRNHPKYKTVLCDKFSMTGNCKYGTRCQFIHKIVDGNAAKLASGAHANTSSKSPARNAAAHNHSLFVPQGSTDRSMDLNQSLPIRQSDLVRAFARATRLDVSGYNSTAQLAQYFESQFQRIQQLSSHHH
# [4] = biological target: T3, Endoribonuclease toxin MazF (Escherichia coli K-12, UniProt P0AE70); test: fluorescent RNA oligo signal without MazF, dose response, counter-screen for MazEF activator project, biochemical, fluorescence, single-stranded RNase substrate (AID 588502); assay type: functional
# T3 sequence (P0AE70 whole entry): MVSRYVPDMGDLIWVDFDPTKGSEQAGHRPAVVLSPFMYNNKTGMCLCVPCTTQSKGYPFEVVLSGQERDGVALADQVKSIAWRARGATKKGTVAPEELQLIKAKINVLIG
# [5] = biological target: Peroxisome proliferator-activated receptor gamma/Nuclear receptor coactivator 1 (Homo sapiens, UniProt P37231); test: as §1, with “1 (SRC-1)” for “2 (SRC-2)”, “assays (depositor defined):AID1300, AID1808, AID504735, AID631]” for “assays: 1297, 1032 ]”; assay type: protein assay
# [6] = biological target: Luciferin 4-monooxygenase (Photinus pyralis, UniProt P08659); test: firefly luciferase enzyme inhibitors, dose response, biochemical, luminescence (AID 1891)
# [7] = biological target: Peroxisome proliferator-activated receptor gamma/Nuclear receptor coactivator 3 (Homo sapiens, UniProt P37231); test: as §1, with “3 (SRC-3)” for “2 (SRC-2)”, “1301 (Confirmation screen.), 1048 (Primary screen.)]” for “1297, 1032 ]”; assay type: functional
# [8] = Luminescence Cell-Based Dose Confirmation HTS to Identify Inhibitors of Platelet Dense Granule Release. [Related pubchem assays: 1663 (Primary HTS), 1678 (Summary of Project)]; assay type: functional
# [9] = biological target: T3, Endoribonuclease toxin MazF; test: MazF toxin RNase activators, dose response, biochemical, fluorescence, single-stranded RNA substrate, uHTS hits (AID 588481); assay type: functional
# Nonstructural protein 1 = Nonstructural protein 1 (Influenza A virus, UniProt Q194T2); assay type: functional, Influenza A virus (A/California/07/2009(H1N1))
# [10] = biological target: Intestinal-type alkaline phosphatase (Mus musculus, UniProt P24822); test: PubChem AID 488785; assay type: functional
# [11] = biological target: Intestinal-type alkaline phosphatase (Homo sapiens, UniProt P09923); test: inhibition of human intestinal alkaline phosphatase – biochemical, dose response (AID 488876); assay type: functional
# [12] = biological target: T4, Alkaline phosphatase, tissue-nonspecific isozyme (Homo sapiens, UniProt P05186); test: TNAP enzyme inhibition by screening hits, dose response, selectivity assay for mouse IAP inhibitor project, biochemical, human TNAP, uHTS hits (AID 488906); assay type: functional
# T4 sequence (P05186 whole entry): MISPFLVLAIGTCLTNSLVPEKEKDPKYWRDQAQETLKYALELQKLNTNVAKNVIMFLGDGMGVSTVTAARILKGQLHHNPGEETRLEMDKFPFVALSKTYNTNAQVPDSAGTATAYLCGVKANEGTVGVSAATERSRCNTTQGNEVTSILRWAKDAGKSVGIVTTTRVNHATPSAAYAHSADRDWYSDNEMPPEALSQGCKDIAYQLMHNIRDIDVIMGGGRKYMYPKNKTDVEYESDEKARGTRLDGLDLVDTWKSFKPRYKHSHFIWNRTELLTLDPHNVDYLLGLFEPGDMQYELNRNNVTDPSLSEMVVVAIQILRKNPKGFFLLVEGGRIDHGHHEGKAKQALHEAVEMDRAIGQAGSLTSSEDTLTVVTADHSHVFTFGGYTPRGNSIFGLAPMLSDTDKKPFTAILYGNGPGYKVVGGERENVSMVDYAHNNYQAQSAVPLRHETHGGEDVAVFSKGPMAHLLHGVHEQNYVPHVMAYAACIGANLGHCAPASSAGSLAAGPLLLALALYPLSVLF
# [13] = biological target: 5-hydroxytryptamine receptor 5A (Homo sapiens, UniProt P47898); test: Counterscreen for agonists of OPRM1-OPRD1 heterodimerization: luminescence-based cell-based high throughput dose response assay to identify agonists of 5-hydroxytryptamine (serotonin) 5A receptor (HTR5A). [Related pubchem assays (depositor defined):AID504326, AID504355, AID504692, AID504904, AID504905]; assay type: functional
# [14] = biological target: Delta-type opioid receptor (Homo sapiens, UniProt P41143); test: Counterscreen for agonists of heterodimerization of the mu 1 (OPRM1) and delta 1 (OPRD1) opioid receptors: Luminescence-based cell-based high throughput dose response assay to identify agonists of OPRD1 homodimerization. [Related pubchem assays (depositor defined):AID504326, AID504355, AID504692, AID504904, AID504905]; assay type: functional
# Mu-type opioid receptor = Mu-type opioid receptor (Homo sapiens, UniProt P35372); test: Counterscreen for agonists of heterodimerization of the mu 1 (OPRM1) and delta 1 (OPRD1) opioid receptors: Luminescence-based cell-based high throughput dose response assay to identify agonists of OPRM1 homodimerization.; assay type: functional;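 also: U2OS cells expressing OPRM1 and beta-arrestin as split beta-galactosidase partners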
# Chain of Mu-type opioid receptor (P35372 whole entry): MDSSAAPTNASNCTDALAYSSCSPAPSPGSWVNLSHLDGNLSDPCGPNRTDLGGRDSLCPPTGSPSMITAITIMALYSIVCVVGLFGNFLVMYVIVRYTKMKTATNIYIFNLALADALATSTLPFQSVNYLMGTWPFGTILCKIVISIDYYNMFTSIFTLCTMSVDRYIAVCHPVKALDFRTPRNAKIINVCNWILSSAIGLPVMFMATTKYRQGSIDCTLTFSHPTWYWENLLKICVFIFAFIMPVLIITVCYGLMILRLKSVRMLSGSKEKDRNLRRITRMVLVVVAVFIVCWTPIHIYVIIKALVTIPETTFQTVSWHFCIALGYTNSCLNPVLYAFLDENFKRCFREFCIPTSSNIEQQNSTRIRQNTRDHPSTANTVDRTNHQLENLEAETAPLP
# Chain of Delta-type opioid receptor (P41143 whole entry): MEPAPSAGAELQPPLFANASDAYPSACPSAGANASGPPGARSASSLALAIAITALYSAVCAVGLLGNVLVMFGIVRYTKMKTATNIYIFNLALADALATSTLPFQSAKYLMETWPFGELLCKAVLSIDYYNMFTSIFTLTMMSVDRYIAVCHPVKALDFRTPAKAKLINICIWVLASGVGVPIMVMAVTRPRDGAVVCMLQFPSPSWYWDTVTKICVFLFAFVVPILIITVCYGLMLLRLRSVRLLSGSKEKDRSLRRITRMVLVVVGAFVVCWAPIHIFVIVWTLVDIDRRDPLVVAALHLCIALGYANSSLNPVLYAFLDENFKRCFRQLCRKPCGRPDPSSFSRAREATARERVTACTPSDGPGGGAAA
# Chain of 5-hydroxytryptamine receptor 5A (P47898 whole entry): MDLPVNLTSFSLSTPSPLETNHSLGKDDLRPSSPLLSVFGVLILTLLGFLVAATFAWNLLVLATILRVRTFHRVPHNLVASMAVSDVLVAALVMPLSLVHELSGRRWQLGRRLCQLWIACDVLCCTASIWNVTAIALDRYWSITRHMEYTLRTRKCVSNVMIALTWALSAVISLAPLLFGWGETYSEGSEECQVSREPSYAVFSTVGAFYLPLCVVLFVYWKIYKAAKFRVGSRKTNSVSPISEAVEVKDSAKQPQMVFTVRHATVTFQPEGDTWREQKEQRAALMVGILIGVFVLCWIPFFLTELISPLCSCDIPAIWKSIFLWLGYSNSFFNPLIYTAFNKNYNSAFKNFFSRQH
# Chain of Luciferin 4-monooxygenase (P08659 whole entry): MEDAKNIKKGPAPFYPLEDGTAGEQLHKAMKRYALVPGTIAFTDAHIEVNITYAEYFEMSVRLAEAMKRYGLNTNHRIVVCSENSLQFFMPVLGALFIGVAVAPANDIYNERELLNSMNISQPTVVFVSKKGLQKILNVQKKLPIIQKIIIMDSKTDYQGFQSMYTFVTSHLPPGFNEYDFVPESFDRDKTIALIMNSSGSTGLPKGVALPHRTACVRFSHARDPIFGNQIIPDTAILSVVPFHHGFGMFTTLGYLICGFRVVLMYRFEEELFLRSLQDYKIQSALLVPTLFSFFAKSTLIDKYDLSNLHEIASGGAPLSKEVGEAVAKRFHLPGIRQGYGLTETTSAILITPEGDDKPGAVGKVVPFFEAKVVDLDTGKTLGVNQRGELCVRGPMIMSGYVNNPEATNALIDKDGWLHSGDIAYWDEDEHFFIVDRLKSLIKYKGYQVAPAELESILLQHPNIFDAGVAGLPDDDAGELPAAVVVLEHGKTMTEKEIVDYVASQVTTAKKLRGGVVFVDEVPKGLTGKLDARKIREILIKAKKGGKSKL
# Chain of Intestinal-type alkaline phosphatase (Mus musculus, UniProt P24822) (P24822 whole entry): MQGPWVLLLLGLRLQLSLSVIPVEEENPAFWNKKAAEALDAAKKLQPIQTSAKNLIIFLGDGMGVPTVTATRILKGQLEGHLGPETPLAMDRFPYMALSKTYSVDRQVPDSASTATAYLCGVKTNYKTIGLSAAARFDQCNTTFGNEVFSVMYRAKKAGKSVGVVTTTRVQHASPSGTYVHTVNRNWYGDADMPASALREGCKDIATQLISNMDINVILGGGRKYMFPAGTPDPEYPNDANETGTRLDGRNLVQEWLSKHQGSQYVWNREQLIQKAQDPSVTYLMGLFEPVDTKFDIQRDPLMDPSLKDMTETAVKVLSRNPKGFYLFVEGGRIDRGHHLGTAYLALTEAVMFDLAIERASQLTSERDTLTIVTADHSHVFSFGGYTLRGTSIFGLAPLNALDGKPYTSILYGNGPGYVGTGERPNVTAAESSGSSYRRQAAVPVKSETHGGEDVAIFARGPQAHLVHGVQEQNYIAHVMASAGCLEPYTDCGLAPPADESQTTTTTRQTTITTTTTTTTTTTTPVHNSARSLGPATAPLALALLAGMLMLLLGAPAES
# Chain of Peroxisome proliferator-activated receptor gamma/Nuclear receptor coactivator 1 (P37231 whole entry): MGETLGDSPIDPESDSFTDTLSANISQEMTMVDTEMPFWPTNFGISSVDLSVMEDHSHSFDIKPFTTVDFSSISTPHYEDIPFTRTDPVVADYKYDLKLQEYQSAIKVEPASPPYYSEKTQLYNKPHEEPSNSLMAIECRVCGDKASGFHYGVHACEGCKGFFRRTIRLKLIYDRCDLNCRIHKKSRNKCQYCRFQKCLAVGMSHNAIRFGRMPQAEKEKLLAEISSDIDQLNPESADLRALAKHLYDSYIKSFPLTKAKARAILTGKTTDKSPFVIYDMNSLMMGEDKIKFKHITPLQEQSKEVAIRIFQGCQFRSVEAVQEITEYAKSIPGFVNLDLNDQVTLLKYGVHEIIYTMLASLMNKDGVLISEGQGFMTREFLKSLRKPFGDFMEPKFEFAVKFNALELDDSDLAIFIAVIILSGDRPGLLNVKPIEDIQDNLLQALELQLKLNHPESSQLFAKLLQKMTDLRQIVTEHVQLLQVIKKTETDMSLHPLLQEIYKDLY
# Chain of Peroxisome proliferator-activated receptor gamma/Nuclear receptor coactivator 1 (Q15788 whole entry, further chain): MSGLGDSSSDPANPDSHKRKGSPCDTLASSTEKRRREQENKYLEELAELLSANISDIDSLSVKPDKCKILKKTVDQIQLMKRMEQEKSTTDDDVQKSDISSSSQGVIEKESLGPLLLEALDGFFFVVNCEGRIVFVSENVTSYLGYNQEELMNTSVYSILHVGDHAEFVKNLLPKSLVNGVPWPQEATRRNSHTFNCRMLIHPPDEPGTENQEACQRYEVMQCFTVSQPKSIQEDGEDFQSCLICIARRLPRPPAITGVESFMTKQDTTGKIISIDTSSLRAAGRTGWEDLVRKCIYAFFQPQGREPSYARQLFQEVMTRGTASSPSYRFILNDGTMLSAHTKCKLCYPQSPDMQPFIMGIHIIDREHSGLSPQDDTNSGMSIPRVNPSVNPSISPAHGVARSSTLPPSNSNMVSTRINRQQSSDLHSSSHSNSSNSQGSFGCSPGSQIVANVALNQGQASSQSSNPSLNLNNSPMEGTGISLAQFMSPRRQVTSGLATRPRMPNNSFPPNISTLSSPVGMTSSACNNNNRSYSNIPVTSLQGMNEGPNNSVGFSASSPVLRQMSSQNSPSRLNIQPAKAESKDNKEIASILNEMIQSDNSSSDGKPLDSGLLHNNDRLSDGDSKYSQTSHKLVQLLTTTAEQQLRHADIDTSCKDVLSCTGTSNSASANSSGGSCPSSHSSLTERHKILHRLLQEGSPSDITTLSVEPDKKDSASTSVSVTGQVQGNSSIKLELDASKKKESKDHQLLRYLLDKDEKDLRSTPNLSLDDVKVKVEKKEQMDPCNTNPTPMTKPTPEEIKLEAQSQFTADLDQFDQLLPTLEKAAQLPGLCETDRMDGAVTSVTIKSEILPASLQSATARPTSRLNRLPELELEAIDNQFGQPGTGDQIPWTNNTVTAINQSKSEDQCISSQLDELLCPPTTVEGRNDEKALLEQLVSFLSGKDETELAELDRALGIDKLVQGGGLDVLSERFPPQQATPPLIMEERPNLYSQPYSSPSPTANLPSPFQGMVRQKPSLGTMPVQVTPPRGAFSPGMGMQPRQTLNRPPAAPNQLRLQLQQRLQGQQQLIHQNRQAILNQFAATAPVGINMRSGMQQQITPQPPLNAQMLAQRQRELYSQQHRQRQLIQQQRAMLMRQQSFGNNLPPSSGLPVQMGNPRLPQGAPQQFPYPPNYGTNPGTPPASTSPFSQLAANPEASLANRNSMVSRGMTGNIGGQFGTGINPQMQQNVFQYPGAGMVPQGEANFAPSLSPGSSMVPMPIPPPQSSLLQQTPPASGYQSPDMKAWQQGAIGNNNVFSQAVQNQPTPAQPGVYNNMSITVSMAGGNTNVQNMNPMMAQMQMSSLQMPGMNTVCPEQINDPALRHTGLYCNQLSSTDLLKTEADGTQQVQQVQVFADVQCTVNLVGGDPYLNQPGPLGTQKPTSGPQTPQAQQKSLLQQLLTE
# Chain of Intestinal-type alkaline phosphatase (Homo sapiens, UniProt P09923) (P09923 whole entry): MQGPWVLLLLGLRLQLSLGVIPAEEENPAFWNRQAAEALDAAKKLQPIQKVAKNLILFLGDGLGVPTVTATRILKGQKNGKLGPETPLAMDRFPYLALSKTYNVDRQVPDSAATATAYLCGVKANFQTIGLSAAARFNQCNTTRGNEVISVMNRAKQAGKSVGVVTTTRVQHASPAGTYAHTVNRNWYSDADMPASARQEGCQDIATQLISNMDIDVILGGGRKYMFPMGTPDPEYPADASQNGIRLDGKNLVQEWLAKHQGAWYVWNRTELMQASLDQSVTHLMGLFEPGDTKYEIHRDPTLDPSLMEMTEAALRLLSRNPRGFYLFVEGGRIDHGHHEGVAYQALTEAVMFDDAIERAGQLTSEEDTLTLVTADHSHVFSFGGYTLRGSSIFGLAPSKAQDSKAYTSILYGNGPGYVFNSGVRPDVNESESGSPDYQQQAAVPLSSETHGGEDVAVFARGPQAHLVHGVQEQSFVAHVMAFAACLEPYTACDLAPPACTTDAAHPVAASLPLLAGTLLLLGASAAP
# Chain of Nonstructural protein 1 (Q194T2 whole entry): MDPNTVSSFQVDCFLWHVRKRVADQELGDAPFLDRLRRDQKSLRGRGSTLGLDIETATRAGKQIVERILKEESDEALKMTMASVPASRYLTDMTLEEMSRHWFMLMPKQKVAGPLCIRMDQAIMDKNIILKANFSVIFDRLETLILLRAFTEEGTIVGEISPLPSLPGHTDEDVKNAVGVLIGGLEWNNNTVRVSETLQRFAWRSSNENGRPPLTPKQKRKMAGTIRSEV
smiles,measurement,setting,value
Cc1nnc(N2C(=O)C(O)=C(C(=O)c3ccco3)C2c2ccc(C(C)(C)C)cc2)s1 (centres undefined),EC50,[1],28.3 µM (not active)
same,EC50,[2],7.86 µM (active)
same,EC50,[3],24.9 µM (active)
same,EC50,[4],19.7 µM (active)
same,EC50,[5],> 2.94 µM (inactive)
same,EC50,[6],> 112 µM (not active)
same,EC50,[7],> 79.4 µM (not active)
same,EC50,[8],> 112 µM (not active)
same,EC50,[9],> 99 µM (inactive)
Cc1cc(C)cc(NC(=S)NC2CC3CCCC(C2)N3Cc2cccs2)c1 (centres undefined),IC50,Nonstructural protein 1,> 100 µM (active)
same,IC50,[10],2.17 µM (active)
same,IC50,[11],4.06 µM (active)
same,IC50,[12],12.9 µM (active)
COc1ccc(C2C(C#N)=C(N)N(c3sc4c(c3C#N)CCCC4)C3=C2C(=O)CC(C)(C)C3)cc1 (centres undefined),EC50,[13],> 92.5 µM (inactive)
same,EC50,[14],11.6 µM (inactive)
same,EC50,Mu-type opioid receptor,> 92.5 µM (inactive)
CC(CC(=O)N(CCC1=CCCCC1)c1c(N)n(Cc2ccccc2)c(=O)[nH]c1=O)c1ccccc1 (centres undefined),EC50,[13],> 92.5 µM (inactive)
same,EC50,[14],> 92.5 µM (inactive)
same,EC50,Mu-type opioid receptor,> 92.5 µM (inactive)
